SMILES strings stand for the structures. pIC50: −log10 of the molar value. Where two headings read alike, the source gives them in different places.

These results are taken from paper PMC8136874, “The entry reaction of the plant shikimate pathway is subjected to highly complex metabolite-mediated regulation” (The Plant Cell, 2021).

For series [1], the system named is DHS activities from pea (Pisum sativum) leaves. On the set-up: method as in Reinink and Borstlap, 1982. The settings on record: 1 mM; ref Reinink and Borstlap, 1982; cited from earlier work.
Series [2] deals with Arabidopsis Col-0 and dhs mutants. The series is classed as in vivo, Arabidopsis thaliana. The settings on record: 300 µM, 14 days after germination. As to the method: (§1) Chemical feeding experiments were carried out as described previously ([de Oliveira et al., 2019]) with some modifications. Seedlings were grown on agar plates containing 0.5 MS with 1% sucrose, 0.8% agar, and 2.5 mM MES at pH 5.7 in the growth chamber where we grew other plants in soil. AAAs and/or shikimate were added to autoclaved media after cooling down to temperatures below 55°C. Plants were grown on the same plate side by side to minimize environmental effects, and multiple plates were prepared to obtain replications. Root lengths of 10-day-old seedlings were quantified by ImageJ.

The subject of series [3] is root growth of Arabidopsis Col-0 and dhs mutants. The series is described as follows: Chemical feeding experiment, root length of 10-day-old seedlings. Format: in vivo, Arabidopsis thaliana. The conditions noted are these: for pIC50: Arabidopsis thaliana. The method, then: as §1
Series [4] relates to AthDHS1 and AthDHS2 mixtures. The series is described as follows: DHS assay using mixtures of AthDHS1 and AthDHS2 recombinant enzymes. The conditions noted are these: 1 mM effector; molar ratios 0, 0.25, 0.5, 0.75, 1. The series is classed as biochemical, Arabidopsis thaliana. The method, then: Next, we thought that the presence of non-inhibited DHS isoforms (e.g. AthDHS1) may affect the AAA sensitivity of AthDHS2, given that AthDHSs are known to function as tetrameric or dimeric forms ([Suzich et al., 1985]; [Pinto et al., 1986]; [Webby et al., 2005]). To test this, the recombinant enzymes of AAA non-inhibited AthDHS1 and AAA-inhibited AthDHS2 were mixed with different ratios (0, 0.25, 0.5, 0.75, and 1) and DHS activity assays were conducted with different inhibitors. Based on the kinetic parameters and the regulatory behaviors of individual AthDHSs, the expected level of DHS activity was first calculated and plotted (dotted lines in Figure 5, D, see the “Materials and methods” section). […] Similar results were obtained for the AthDHS2 and AthDHS3 mixture (Figure 5, E).
Unless otherwise noted, DHS enzymatic activity was monitored as previously described ([Liu et al., 2008]), with several optimizations for high-throughput assays with eight-strip PCR tubes and a thermal cycler. The enzyme solution (7.7 µL) containing 50 mM HEPES (pH 7.4) was preincubated with an effector molecule(s) at room temperature for 10 min. For assays using recombinant protein and enzyme fraction isolated from plant leaves, 0.01–0.05 µg and approximately 50 µg of proteins were used, respectively. After adding 0.5 µL of 0.1 M DTT, the samples were further incubated at room temperature for 15 min. […] The enzyme reaction was started by adding 6.8 µL of the substrate solution, then incubated at 37°C for 20 min, and terminated by adding 30 µL of 0.6 M trichloroacetic acid. After brief centrifugation, 5 µL of 200 mM NaIO4 (sodium meta-periodate) in 9 N H3PO4 was added to oxidize the enzymatic product and incubate at 25°C for 20 min. […] The absorbance of the pink supernatant was read at 549 nm with the microplate reader (Infinite 200 PRO, TECAN, Männedorf, Switzerland) to calculate DAHP production with the molar extinction coefficient at 549 nm (ε = 549 nm) of 4.5 × 10^4/M/cm. […]

Series [5] relates to shikimate accumulation in Col-0 and dhs mutants. The series is described as follows: Shikimate content with and without Tyr and/or glyphosate treatment. The series is classed as in vivo, Arabidopsis thaliana. The settings on record: 300 µM, without glyphosate; all genotypes except dhs1. As to the method: Approximately 50–80 mg of fully expanded mature leaves were pooled from multiple plants at the same developmental stages and ground in 800 µL of extraction buffer (v/v 2:1 of methanol and chloroform with 2 µg/mL isovitexin [Millipore-Sigma], 100 µM norvaline [Thermo Fisher Scientific], and 1.25 µg/mL Tocol [Matreya LLC, State College, PA, USA] for internal standards for soluble metabolite analysis by LC–MS and GC–MS and tocopherol analysis by GC–MS, respectively), using 1600 MiniG Tissue Homogenizer (SPEX SamplePrep, Metuchen, USA) and 3-mm glass beads. After adding 600 µL of H2O and then 250 µL of chloroform, polar phase containing amino acids, and non‐polar phase containing tocopherols were separated by centrifugation, dried in new tubes. To detect Trp and AAA-derived metabolites, LC–MS analysis was carried out as previous described with some modification ([Alseekh et al., 2015]). The dried metabolites were resuspended in 70 µL of 80% LC–MS-grade methanol. Two microliters of the sample was injected onto a HSS T3 C18 reversed phase column (100 × 2.1 mm i.d., 1.8-μm particle size; Waters, Milford, CT, USA) and eluted using a 20-min gradient comprising 0.1% formic acid in LC–MS-grade water (solvent A) and 0.1% formic acid in LC–MS-grade acetonitrile (solvent B) at a flow rate of 0.4 mL/min and column temperature of 40°C. The binary linear gradient with following ratios of solvent B was used: 0–1 min, 1%; 1–13 min, 1%–35%; 13–14.5 min, 35%–70%; 14.5–15.5 min, 70%–99%, 15.5–17 min, 99%; 17–17.5 min, 99%–[…]; 17.5–20 min, 1%. The spectra were recorded using full scan mode of negative ion detection, covering a mass range from m/z 100 to 1,500. The resolution was set to 25,000 and the maximum scan time was set to 250 ms. The sheath gas was set to a value of 60, while the auxiliary gas was set to 35. The transfer capillary temperature was set to 150°C, while the heater temperature was adjusted to 300°C. The spray voltage was fixed at 3 kV, with a capillary voltage and a skimmer voltage of 25 and 15 V, respectively. Retention times, MS spectra, and associated peak intensities were extracted from the raw files using the Xcalibur software (Thermo Fisher Scientific). […] For anthocyanin quantification, the polar phase isolated for amino acid analysis was diluted 10 times with water in a new tube. […] Shikimate level was spectrometrically determined based on previous literatures ([Shaner et al., 2005]; [Sharkhuu et al., 2014]). […] After stopping the reaction by adding 100 µL of a termination solution containing 0.6 N sodium hydroxide and 0.22 M sodium sulfite, the absorption at 380 nm was immediately measured with the microplate reader. Shikimate concentration was determined by comparing with a dilution series of the shikimate standards.

The next series concerns the target T1, AthDHS1 (Arabidopsis thaliana, UniProt P29976).
T1 construct: AthDHS1; residues 49–525; hexa-histidine; made in house; host or cells: E. coli Rosetta2 (DE3), pET28a
In words: DHS enzymatic activity assay with recombinant AthDHS1. The series is classed as biochemical. The conditions noted are these: 1 mM effector. The method, then:
(§2) Unless otherwise noted, DHS enzymatic activity was monitored as previously described ([Liu et al., 2008]), with several optimizations for high-throughput assays with eight-strip PCR tubes and a thermal cycler. The enzyme solution (7.7 µL) containing 50 mM HEPES (pH 7.4) was preincubated with an effector molecule(s) at room temperature for 10 min. For assays using recombinant protein and enzyme fraction isolated from plant leaves, 0.01–0.05 µg and approximately 50 µg of proteins were used, respectively. After adding 0.5 µL of 0.1 M DTT, the samples were further incubated at room temperature for 15 min. […] The enzyme reaction was started by adding 6.8 µL of the substrate solution, then incubated at 37°C for 20 min, and terminated by adding 30 µL of 0.6 M trichloroacetic acid. After brief centrifugation, 5 µL of 200 mM NaIO4 (sodium meta-periodate) in 9 N H3PO4 was added to oxidize the enzymatic product and incubate at 25°C for 20 min. To stop the oxidation reaction, 20 µL of 0.75 M NaAsO2 (sodium arsenite), which was dissolved in 0.5 M Na2SO4 and 0.05 M H2SO4, was immediately mixed. After 5 min of incubation at room temperature, one-third of the sample solution was transferred to a new tube to be mixed with 50 µL of 40 mM thiobarbituric acid and incubated at 99°C for 15 min in a thermal cycler. Developed pink chromophore was extracted by putting the final solutions with 600 µL of cyclohexanone in eight-strip solvent-resistant plastic tubes, mixing vigorously and centrifuging them at 4,500 × g for 3 min to separate water- and cyclohexanone-based layers. The absorbance of the pink supernatant was read at 549 nm with the microplate reader (Infinite 200 PRO, TECAN, Männedorf, Switzerland) to calculate DAHP production with the molar extinction coefficient at 549 nm (ε = 549 nm) of 4.5 × 10^4/M/cm. Reaction mixtures with boiled enzyme or without any substrates were run in parallel and used as negative controls to estimate the background signal for recombinant enzymes or enzymatic fraction from plant tissues, respectively.
(§3) For determination of kinetic parameters, the data of enzymatic activities measured in the presence of various concentration of substrates were calculated with the Michaelis–Menten equation in Graphpad Prism 6 (GraphPad Software, San Diego, CA, USA).

In series [6] the test system is DHS activity from mung bean (Vigna radiata) seedlings. On the set-up: method as in Rubin and Jensen, 1985. The settings on record: ref Rubin and Jensen, 1985; cited from earlier work.
Series [7] deals with DHS activity from spinach (Spinacia oleracea) leaves. On the set-up: method as in Doong et al., 1993. The settings on record: ref Doong et al., 1993; cited from earlier work.
In a further series the target is AthDHS3 (Arabidopsis thaliana, UniProt Q9SK84). The series is described as follows: DHS enzymatic activity assay with recombinant AthDHS3. The series is classed as biochemical. The settings on record: 1 mM effector. As to the method: as §2, §3
AthDHS3, sequence (Q9SK84 entry or part of it): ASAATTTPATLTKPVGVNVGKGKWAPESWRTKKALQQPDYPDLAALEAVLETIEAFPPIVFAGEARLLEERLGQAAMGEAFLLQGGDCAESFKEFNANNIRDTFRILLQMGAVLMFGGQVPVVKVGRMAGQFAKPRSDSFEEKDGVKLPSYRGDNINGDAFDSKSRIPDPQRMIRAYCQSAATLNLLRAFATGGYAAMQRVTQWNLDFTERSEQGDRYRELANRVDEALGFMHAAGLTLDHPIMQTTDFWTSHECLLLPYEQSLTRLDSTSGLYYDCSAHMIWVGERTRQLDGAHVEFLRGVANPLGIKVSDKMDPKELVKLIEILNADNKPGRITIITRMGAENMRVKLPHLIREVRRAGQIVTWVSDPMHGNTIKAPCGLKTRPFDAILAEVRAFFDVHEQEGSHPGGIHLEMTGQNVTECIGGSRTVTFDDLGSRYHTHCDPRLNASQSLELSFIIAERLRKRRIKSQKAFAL
Another series addresses T2, AthDHS2 (Arabidopsis thaliana, UniProt Q00218).
T2 construct: AthDHS2; residues 34–507; hexa-histidine; made in house; host or cells: E. coli Rosetta2 (DE3), pET28a
In words: DHS enzymatic activity assay with recombinant AthDHS2. The series is classed as biochemical. The settings on record: 1 mM effector.

T1 sequence (P29976 49-525): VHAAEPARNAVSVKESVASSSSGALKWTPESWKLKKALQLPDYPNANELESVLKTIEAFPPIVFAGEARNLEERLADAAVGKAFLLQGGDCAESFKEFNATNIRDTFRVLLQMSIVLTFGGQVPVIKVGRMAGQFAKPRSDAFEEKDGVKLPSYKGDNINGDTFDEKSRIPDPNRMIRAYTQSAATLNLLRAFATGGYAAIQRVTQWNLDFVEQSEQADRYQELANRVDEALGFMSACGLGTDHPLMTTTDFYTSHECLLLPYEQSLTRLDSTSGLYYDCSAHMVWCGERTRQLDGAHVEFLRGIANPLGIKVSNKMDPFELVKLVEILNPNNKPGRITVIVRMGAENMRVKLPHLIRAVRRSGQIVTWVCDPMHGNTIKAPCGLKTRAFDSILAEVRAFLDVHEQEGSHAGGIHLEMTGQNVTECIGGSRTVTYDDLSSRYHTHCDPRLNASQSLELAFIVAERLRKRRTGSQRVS
T2 sequence (Q00218 34-507): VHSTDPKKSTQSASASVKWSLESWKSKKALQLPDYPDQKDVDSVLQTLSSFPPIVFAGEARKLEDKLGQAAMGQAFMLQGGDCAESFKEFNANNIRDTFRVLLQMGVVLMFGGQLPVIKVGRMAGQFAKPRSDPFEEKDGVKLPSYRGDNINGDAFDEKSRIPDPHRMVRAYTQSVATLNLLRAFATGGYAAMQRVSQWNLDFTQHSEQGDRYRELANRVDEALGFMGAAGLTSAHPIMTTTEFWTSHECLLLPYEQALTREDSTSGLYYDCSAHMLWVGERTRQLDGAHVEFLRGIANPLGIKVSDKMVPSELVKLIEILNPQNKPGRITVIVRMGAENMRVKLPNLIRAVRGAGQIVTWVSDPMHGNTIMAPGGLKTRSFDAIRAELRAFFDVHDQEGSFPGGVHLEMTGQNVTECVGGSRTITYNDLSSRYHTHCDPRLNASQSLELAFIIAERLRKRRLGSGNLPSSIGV

As to `N[C@@H](Cc1ccc(O)cc1)C(=O)O` [Tyr, L-tyrosine], the “inhibition of DHS activity” value in series [1] is given as 60%. Moreover, the “phenotype of newly growing leaves” value in series [2] (Col-0 and dhs3) was “cup-like shape”. Also, in [2] (dhs1), the shoot phenotype entry is “very small and pale”. Also, the cup-shaped leaf phenotype result in [2] (dhs2) was “did not appear”. In addition, the pIC50 was 4.10 in series [3] (read-out: IC50 of root growth impairment) and less than 3.52 in series [3] (read-out: concentration giving 50% growth inhibition). In series [3] (dhs1 mutant), the “concentration that specifically impaired root growth” value is given as no less than 100 µM. In addition, the “effect of the added compound on Trp-mediated root growth inhibition of dhs3” value in [3] (media with 300 µM Trp, AAAs added at 300 µM, shikimate at 500 µM) is “not recovered”. Also, the “observed DHS activity of the enzyme mixtures versus theoretically calculated activity” value in series [4] is recorded as “significantly higher than theoretically calculated activities”. The “effect on shikimate level” value in [5] is reported as “did not alter the shikimate level”. The “effect on AthDHS1 activity (in words)” value at AthDHS1 is listed as “significantly activated”.
`N[C@@H](CC1(C(=O)O)C=CC(O)C=C1)C(=O)O` (stereo partly shown) [arogenate]: the “concentration beyond which DHS activity is inhibited” value in [6] is given as greater than 0.4 mM; in series [7], greater than 1 mM. Besides, the “effect on AthDHS3 activity (in words)” value at AthDHS3 is “did not significantly affect”. The “inhibition of AthDHS2 activity” value on AthDHS2 is roughly 75%. For the same compound, at AthDHS1, the “effect on AthDHS1 activity (in words)” value was “did not significantly affect”.
